Experimental data published in patent US20230087118A1, “IMIDAZO[1,2-a][sequence] DERIVATIVES AND THEIR USE IN THE TREATMENT OF DISEASE” (priority 2019, published 2023).
pIC50: −log10 of the molar value.

Assays:
IRAK4 [1] = target: T1, IRAK4 (Homo sapiens, UniProt Q9NWZ3); test: 2-hour 10 μM ATP Biochemical Assay (MesoScale Detection format; IRAK4 phosphorylation of biotin labeled IRAK1 activation loop peptide)
T1 sequence (Q9NWZ3 1-460): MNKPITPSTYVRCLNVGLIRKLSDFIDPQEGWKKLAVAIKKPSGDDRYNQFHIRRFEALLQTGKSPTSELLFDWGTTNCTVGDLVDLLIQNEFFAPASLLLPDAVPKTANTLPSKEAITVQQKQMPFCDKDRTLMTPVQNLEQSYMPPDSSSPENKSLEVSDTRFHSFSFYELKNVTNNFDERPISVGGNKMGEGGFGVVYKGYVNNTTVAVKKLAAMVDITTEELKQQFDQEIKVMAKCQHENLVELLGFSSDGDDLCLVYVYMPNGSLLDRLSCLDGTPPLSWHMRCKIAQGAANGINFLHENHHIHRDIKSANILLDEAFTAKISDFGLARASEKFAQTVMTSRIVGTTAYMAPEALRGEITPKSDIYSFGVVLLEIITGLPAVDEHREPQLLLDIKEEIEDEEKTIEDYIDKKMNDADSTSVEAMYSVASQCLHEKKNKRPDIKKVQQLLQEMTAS
Description: Compounds of the invention were assessed for their ability to inhibit IRAK4 activity. The inhibitory properties of the compounds of the invention described herein can be evidenced by testing in any one of the following assays.
The 2-hour 10 μM ATP Biochemical Assay employs a MesoScale Detection (MSD) format. The kinase reaction is based on the IRAK4 phosphorylation of a biotin labeled peptide (IRAK1 activation loop sequence 360-389).
The kinase reaction in 30 μl is carried out in wells of a 384 well polypropylene assay plate, with 0.1 nM IRAK4, 1.6 μM of biotinylated peptide substrate and 10 μM ATP in 50 mM Hepes, pH 7.5, 60 mM NaCl, 5 mM MgCl2, 0.25 mM MnCl2, 2 mM DTT, 0.01% BSA, and 1% DMSO (from compound DMSO stocks), for 2 hour at room temperature. The activity is quenched with 11 μl of 70 mM EDTA, pH 8.
To detect the phosphorylated biotinylated peptide substrate, 30 μl of the quenched reaction mixture is added to equivalent wells of a 384 well streptavidin coated MesoScale plate (Meso Scale Discovery #L21SA-1). After a 1 hour incubation of the plate for 1 hour at room temperature with gentle mixing, the plate wells are washed 3 times with 50 mM Tris, pH 7.5, 150 mM NaCl, 0.02% Tween-20.
A 25 μl volume of 1:500 anti-P-Threonine Rabbit polyclonal Antibody plus 1:500 Goat-anti-Rabbit Sulfo Tag Antibody (Meso Scale Discovery R32AB-1) in 50 mM Tris, pH 7.5, 150 mM NaCl, 0.02% Tween-20 plus 2% BSA is then added to each well. After a 1-hour incubation of the plate for 1 hour at room temperature with gentle mixing, the plate wells are washed, 3 times with 50 mM Tris, pH 7.5, 150 mM NaCl, 0.02% Tween-20. A 40 μl volume of 2× MSD Read Buffer (Meso Scale Discovery R92TC-1) is added to each well, and the plate is read immediately in an MSD Plate Reader (Meso Scale Discovery).

IRAK4 [2] = target: T1, IRAK4; test: biochemical; details: for IC50: IRAK4 Biochemical Assay (1 mM ATP, 2 h) IC50 (μM), 1 mM ATP, 2 h, 100 pM IRAK4
Description: The 2-hour 1 mM ATP IRAK4 Biochemical assay was performed as described above, but with 100 pM IRAK4 and 1 mM ATP.

COc1cc2nc(C3CCOCC3)cn2cc1C(=O)Nc1cccc(C(F)(F)CF)c1 [Example 122]
pIC50 (IRAK4 [1]; 0.1 nM IRAK4): 7.82
pIC50 (IRAK4 [2]): 7.24

COc1cc2nc(C3CCOCC3)cn2cc1C(=O)Nc1ccccn1 [Example 146]
pIC50 (IRAK4 [1]; 0.1 nM IRAK4): 8.05
pIC50 (IRAK4 [2]): 7.51

COc1cccc(NC(=O)c2cn3cc(CC4CCOCC4)nc3cc2OC)n1 [Example 10]
pIC50 (IRAK4 [1]; 0.1 nM IRAK4): 8.10
IC50 (IRAK4 [2]): 0.0293 µM

COc1cc2nc(CC3CCOCC3)cn2cc1C(=O)Nc1cccc(C(F)(F)F)n1 [Example 45]
pIC50 (IRAK4 [1]; 0.1 nM IRAK4): 7.89
IC50 (IRAK4 [2]): 0.0401 µM

COc1cc2nc(C3CCOCC3)cn2cc1C(=O)N[C@@H]1CCCC[C@H]1OC (racemic) [Example 155]
pIC50 (IRAK4 [1]; 0.1 nM IRAK4): 6.64

COc1cc2nc(C3CCOCC3)cn2cc1C(=O)Nc1cc(F)cc(Cl)c1 [Example 172]
pIC50 (IRAK4 [1]; 0.1 nM IRAK4): 7.68

COc1cc2nc(C3CCOCC3)cn2cc1C(=O)Nc1cc(F)ccn1 [Example 132]
pIC50 (IRAK4 [1]; 0.1 nM IRAK4): 7.47

COc1cc2nc(C3CCOCC3)cn2cc1C(=O)NC1CCCC(F)C1 (stereo not drawn) [Example 139]
pIC50 (IRAK4 [1]; 0.1 nM IRAK4): 6.14

COc1cc2nc(C3CCOCC3)cn2cc1C(=O)Nc1cccc2c1C1CCC2O1 (stereo not drawn) [Example 130]
pIC50 (IRAK4 [1]; 0.1 nM IRAK4): 6.85

COc1cc2nc(C3CCOCC3)cn2cc1C(=O)NC1CC(C)C1 (stereo not drawn) [Example 134]
pIC50 (IRAK4 [1]; 0.1 nM IRAK4): 6.20

COc1cccc(NC(=O)c2cn3cc(C4CCOCC4)nc3cc2OC)c1 [Example 157]
pIC50 (IRAK4 [1]; 0.1 nM IRAK4): 7.68

COc1cccc(NC(=O)c2cn3cc(C4CCC(OC)C4)nc3cc2OC)n1 (stereo not drawn) [Example 17]
pIC50 (IRAK4 [1]; 0.1 nM IRAK4): 8.70

COc1cc2nc(C3CCOCC3)cn2cc1C(=O)Nc1cc(Cl)cc(Cl)c1 [Example 133]
pIC50 (IRAK4 [1]; 0.1 nM IRAK4): 6.59

COc1cccc(NC(=O)c2cn3cc(C4CC5CCC(C4)O5)nc3cc2OC)n1 (stereo not drawn) [Example 18]
pIC50 (IRAK4 [1]; 0.1 nM IRAK4): 9.00

COc1cc2nc(C3CCOCC3)cn2cc1C(=O)Nc1ccc(F)c(F)c1C [Example 181]
pIC50 (IRAK4 [1]; 0.1 nM IRAK4): 6.77

COc1cc2nc(C3CCOCC3)cn2cc1C(=O)Nc1cc(C)cc(F)c1 [Example 176]
pIC50 (IRAK4 [1]; 0.1 nM IRAK4): 7.52

COc1cc2nc(C3CCOCC3)cn2cc1C(=O)NC1CCCC(C)C1C (stereo not drawn) [Example 175]
pIC50 (IRAK4 [1]; 0.1 nM IRAK4): 6.13

COc1cc2nc(C3CCOCC3)cn2cc1C(=O)N[C@@H]1COC[C@H]1F (racemic) [Example 123]
pIC50 (IRAK4 [1]; 0.1 nM IRAK4): 6.13

COc1cc2nc(C3CCOCC3)cn2cc1C(=O)Nc1cc(C)cc(C)c1 [Example 178]
pIC50 (IRAK4 [1]; 0.1 nM IRAK4): 6.52

COc1cccc(NC(=O)c2ccc3nc(C4CCOCC4)cn3c2)n1 [Example 47]
pIC50 (IRAK4 [1]; 0.1 nM IRAK4): 7.04

COc1cccc(NC(=O)c2cn3cc(C[C@H]4CCOC4)nc3cc2OC)n1 [Example 50, (S)-7-methoxy-N-(6-methoxypyridin-2-yl)-2-((tetrahydrofuran-3-yl)methyl)imidazo[1,2-a]pyridine-6-carboxamide]
pIC50 (IRAK4 [1]; read-out: IRAK4 Biochemical Assay (10 μM ATP, 2 h) IC50, 0.1 nM IRAK4): 8.52

COc1cc(C(=O)Nc2cccc(C(F)F)n2)cn2cc(C3(OC)CC3)nc12 [Example 91, N-(6-(difluoromethyl)pyridin-2-yl)-8-methoxy-2-(1-methoxycyclopropyl)imidazo[1,2-a]pyridine-6-carboxamide]
pIC50 (IRAK4 [1]; 0.1 nM IRAK4): 7.10

COc1cc2nc(C3CCOCC3)cn2cc1C(=O)Nc1cccnc1C [Example 131]
pIC50 (IRAK4 [1]; 0.1 nM IRAK4): 7.60

COc1cccc(NC(=O)c2cn3cc(C4CC45CCOC5)nc3cc2OC)n1 (stereo not drawn) [Example 16]
pIC50 (IRAK4 [1]; 0.1 nM IRAK4): 8.10

COc1cc2nc(C3CCOCC3)cn2cc1C(=O)Nc1scnc1C [Example 105]
pIC50 (IRAK4 [1]; 0.1 nM IRAK4): 7.37

COc1cc2nc(C(C)(C)CC#N)cn2cc1C(=O)Nc1cccc(C(F)(F)F)n1 [Example 46]
pIC50 (IRAK4 [1]; 0.1 nM IRAK4): 7.43

COc1cc2nc(CC(C)C#N)cn2cc1C(=O)Nc1cccc(C(F)(F)F)n1 (stereo not drawn) [Example 42]
pIC50 (IRAK4 [1]; 0.1 nM IRAK4): 7.51

COc1cc2nc(C3CCOCC3)cn2cc1C(=O)NC1CCCC2(CC2)C1 (stereo not drawn) [Example 126]
pIC50 (IRAK4 [1]; 0.1 nM IRAK4): 6.18

COc1cc2nc(C3CCOCC3)cn2cc1C(=O)NC1C2CCOC2C12CCC2 (stereo not drawn) [Example 124]
pIC50 (IRAK4 [1]; 0.1 nM IRAK4): 6.91
